{"source": "paper PMC3934850", "about": "(Biochimica et biophysica acta, 2014)", "target": "myoglobin (carbonmonoxy myoglobin, MbCO) (Equus caballus, UniProt P68082)", "sequence (P68082 2-154)": "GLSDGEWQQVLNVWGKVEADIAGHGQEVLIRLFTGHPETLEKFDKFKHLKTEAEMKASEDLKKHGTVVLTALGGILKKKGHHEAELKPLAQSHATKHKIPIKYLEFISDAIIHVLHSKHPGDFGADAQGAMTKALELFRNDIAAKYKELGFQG", "assay": "1H NMR titration", "assay_type": "binding"}
{"smiles": "CCCCCCCCCCCCCCCC(=O)O", "note": "[PA, palmitate]", "values": [{"measurement": "Kd", "value": "39 to 48", "unit": "µM"}]}
